This is an account of results in patent US20250381269A1, “BISPECIFIC ANTIBODY BINDING EGFR AND B7-H3” (FORTVITA BIOLOGICS (SINGAPORE) PTE. LTD., priority 2022, published 2025).

Usually IC50 stands for the point on the concentration scale where inhibition reaches its midpoint. A lower IC50 goes with greater potency in that assay. A word on the EC50: it is the concentration needed to bring the measured effect to its halfway point.

Assay [1] relates to NCI-H358 tumor-bearing mice. In words: Anti-tumor efficacy in NCI-H358 tumor-bearing mice, combination with AMG510. It counts as in vivo, NOG mice. The following applies: NCI-H358, NOG mice, day 33; for Tumor volume (mm^3): antibodies 10 mg/kg i.p. Q3-4D x4 (h-IgG 20 mg/kg), AMG510 10 mg/kg intragastric QD x14; for Tumor growth inhibition (%): antibodies 10 mg/kg i.p. Q3-4D x4, AMG510 10 mg/kg intragastric QD x14, vs h-IgG 20 mg/kg. On the procedure: SPF female NOG mice (purchased from Beijing Vital River Laboratory Animal Technology Co., Ltd.) with certificate No. 1100112211001153625 were used in the experiment.
NCI-H358 cells were routinely subcultured for the subsequent in-vivo experiment. The cells were collected by centrifugation. Then the NCI-H358 cells were resuspended in an equal-proportion mixture of PBS (1×) and Matrigel Matrix (Corning) to prepare a cell suspension with a cell concentration of 25×10^6 cells/mL. On day 0, 0.2 mL of the cell suspension was taken and subcutaneously inoculated to the right abdominal area of NOG mice to establish NCI-H358 tumor-bearing mouse models.
Six days after the tumor cell inoculation, the tumor volume in each mouse was measured. The mice were grouped (with 7 mice in each group).
Administration was performed on days 6, 9, 12, and 15 after the inoculation of NCI-H358 cells. Mice were monitored for tumor volume and body weight twice a week. […] Mice were monitored for tumor volume twice a week, and were monitored for body weight every day during the administration, and twice a week after the end of administration. […] On day 33 after the inoculation, the relative tumor growth inhibition (TG1%) was calculated by the following formula: TG1%=100%×(control group tumor volume−treatment group tumor volume)/(control group tumor volume−control group tumor volume before administration).
Tumor volume measurement: The maximum length of major axis (L) and maximum length of minor axis (W) of tumors were measured with a vernier caliper, and tumor volume was calculated by the following formula: V=L×W^2/2. The mice were weighed using an electronic balance.

The next assay deals with Colo-680N. Briefly: Proliferation inhibition experiment, Colo-680N (HNSCC). As to conditions: EGFR WT, KRAS WT. It is filed as cell-based. On the procedure:
(§1) • (1) NSCLC: plated at 1500-2500 cells/100 μL in a 96-well low-adsorption plate (Corning, CLS7007-24EA) for 3D cell culture, in which the following cell lines and specific amounts were used: • NSCLC: 2000 cells/100 μL/well • NCI-H292: Cell Bank of the Chinese Academy of Sciences, SCSP-582 • NCI-H322: Cobioer, CBP60134 • NCI-H1650: ATCC, CRL-5883 • NCI-H1975: ATCC, CRL-5908 • SK-MES-1: CoBioer, CBP60152 • NCI-H1703: ATCC, HTB-43 • PC9+hB7H3: constructed as described above • CRC and HNSCC: plated at 1500-2000 cells/100 μL in a 96-well white-bottom plate (NUNC, 136101) for 2D cell culture, in which the following cell lines and specific amounts were used: • CRC: 1500 cells/100 μL/well • CCK-81: CoBioer, CBP60581 • HT-55: CoBioer, CBP60012 • H508: CoBioer, CBP60795 • LS180: CoBioer, CBP60034 • HNSCC: 1500 cells/100 μL/well • TE-1: CoBioer, CBP60655 • Colo680: CoBioer, CBP60452. (2) The antibody molecules prepared in advance by dilution were added to the corresponding cell well plate, mixed well, and cultured in an incubator at 37° C. with 5% CO2 for 5 days. • (3) After 5 days of continuous culture for proliferation inhibition assay, the Cell-Titer reagent (Promega, G7572) prepared in advance was added to cell wells, the plate was left to stand at room temperature for 15-25 min in the dark, and then CRC and HNSCC cells were directly detected by a multimode microplate reader (Molecular Devices, Spectra MAXi3). • (4) NSCLC: Cell-Titer and the cell mixture were transferred to a 96-well white-bottom plate (NUNC, 136101) and detected by a multimode microplate reader (Molecular Devices, Spectra MAXi3).

The subject of assay [2] is H1975. Briefly: ADCC report assay, H1975. It is filed as cell-based. The following applies: EGFR L858R T790M, KRAS WT, effector/target 10:1, 20 h. On the procedure: (§2) In the ADCC report assay, ADCC effector cells ((Promega, G7102)) are engineered cells in which FcRIIIa (V158) receptor is overexpressed into Jurkat T cells, which rapidly respond to ADCC through the NFAT-RE driving element within the Jurkat T cells.
(§3) • (1) Tumor cells (cell lines listed in Table 3) and ADCC effector cells (Promega, G7102) were mixed well (1.5E4 cells: 1.5E5 cells/well/100 μL (1.5E5: 1.5E6 cells/mL)) according to an effector/target ratio (10:1), and added to a 96-well white plate (NUNC, 136101). • (2) The antibody molecules prepared in advance by dilution were added to the corresponding cell well plates, mixed well, and cultured at 37° C. with 5% CO2 for 20 h. • (3) The Bio-glo reagent (Promega, G755B) prepared in advance was added to the cell well plate, the plate was left to stand at room temperature for 10-15 min in the dark, and then the cells were detected by a multimode microplate reader (Molecular Devices, Spectra MAXi3).

In assay [3] the test system is SK-MES-1. Briefly: ADCC report assay, SK-MES-1. It counts as cell-based. The following applies: EGFR Amplification, KRAS WT, effector/target 10:1, 20 h. On the procedure: as §2, §3
For assay [4], the system named is H292. In words: ADCC report assay, H292. It is filed as cell-based. The following applies: EGFR WT, KRAS WT, effector/target 10:1, 20 h. On the procedure: as §2, §3
Another assay has as its system TE-1. In words: Proliferation inhibition experiment, TE-1 (HNSCC). It is filed as cell-based. The following applies: EGFR WT, KRAS WT. On the procedure: as §1
The subject of assay [5] is H1703. Briefly: ADCC report assay, H1703. It is filed as cell-based. The following applies: EGFR Amplification, KRAS WT, effector/target 10:1, 20 h. On the procedure: as §2, §3
Assay [6] concerns H322. Briefly: ADCC report assay, H322. It is filed as cell-based. The following applies: EGFR WT, KRAS WT, effector/target 10:1, 20 h. On the procedure: as §2, §3
Assay [7] has as its system H322. In words: Proliferation inhibition experiment, H322 (NSCLC). It is filed as cell-based. As to conditions: EGFR WT, KRAS WT. On the procedure:
as §1

For assay [8], the system named is H1703. In words: Proliferation inhibition experiment, H1703 (NSCLC). It is filed as cell-based. The following applies: H1703, EGFR Amplification, KRAS WT. On the procedure:
as §1

The subject of assay [9] is H292. Briefly: Proliferation inhibition experiment, H292 (NSCLC). It is filed as cell-based. The following applies: EGFR WT, KRAS WT. On the procedure: as §1
In assay [10] the test system is SK-MES-1. Briefly: Proliferation inhibition experiment, SK-MES-1 (NSCLC). It counts as cell-based. As to conditions: EGFR Amplification, KRAS WT. On the procedure:
as §1

Assay [11] relates to H1975. In words: Proliferation inhibition experiment, H1975 (NSCLC). It is filed as cell-based. The following applies: EGFR L858R T790M, KRAS WT. On the procedure: as §1

In the case of amivantamab [JNJ372], the “Tumor volume (mm^3)” value in [1] is 196 mm^3. The “Tumor growth inhibition (%)” value in [1] came to 82%. Also, the “Max inhibition (%) Mean ± SD” value in the assay with Colo-680N stood at 26.5 ± 2.2%; in the assay with TE-1 it was 32.2 ± 4.7%; in the assay with H322 [7] it was 38.2 ± 6.7%; with H1703 [8] it was 44.3 ± 3.4%; in the assay with H292 [9], 64.5 ± 2.5%; in the assay on SK-MES-1 [10], 66.1 ± 3.7%. In addition, the “Max inhibition (%) Mean ± SD” value in the assay on H1975 [11] amounted to 47.9 ± 3.0%. Further, the IC50 was determined as 25.5 nM with Colo-680N (2D culture, 5 days); 570 nM in the assay on TE-1 (2D culture, 5 days); 8.06 nM with H322 [7] (3D culture, 5 days); 0.7 nM in the assay with H1703 [8] (3D culture, 5 days); 141 nM in the assay on H292 [9] (3D culture, 5 days); 9.82 nM in the assay on SK-MES-1 [10] (3D culture, 5 days). This substance returned an IC50 in the assay with H1975 [11] (3D culture, 5 days) of 5.67 nM. Further, the EC50 in the assay with H1975 [2] came out at 0.063 nM; with SK-MES-1 [3], 0.144 nM; in the assay with H292 [4], 0.083 nM; with H1703 [5], 0.119 nM; in the assay with H322 [6], 0.106 nM.
On to zalutumumab [Zalu mAb], for which the “Tumor volume (mm^3)” value in assay [1] is reported as 126 mm^3. Besides, the “Tumor growth inhibition (%)” value in assay [1] came to 111%. The “Max inhibition (%) Mean ± SD” value in the assay with Colo-680N is 24.9 ± 1.1%; in the assay on TE-1, 42.2 ± 1.1%; in the assay on H322 [7], 39.9 ± 0.8%; with H1703 [8] it was 45.6 ± 3.8%; with H292 [9], 79.4 ± 1.6%; in the assay with SK-MES-1 [10], 67.8 ± 4.1%. For the same substance, the “Max inhibition (%) Mean ± SD” value with H1975 [11] was determined as 51.0 ± 2.3%. The EC50 in the assay on H1975 [2] came out at 0.029 nM; in the assay with SK-MES-1 [3] it was 0.011 nM; with H292 [4] it was 0.009 nM; in the assay with H1703 [5] it was 0.007 nM; with H322 [6] it was 0.006 nM.
